In US20250248998A1, “LRRK2 Inhibitors” (Brenig Therapeutics, Inc., priority 2022, published 2025):

Key:
[1] = target: LRRK2 WT (Homo sapiens, UniProt Q5S007); experiment: Cell-based NanoBRET target engagement assay in HEK293 cells transfected with LRRK2 WT-NanoLuc fusion vector; design: expressed in transfected cells; host or cells: HEK293 (ATCC); settings: compound treatment 1 h
Method: (§1) Example C. Cell-Based NanoBRET Target Engagement Assay in 11EK293 Cells Transiently Transfected with LRRK2 WT- or LRRK2 (G2019S)-Nano Luc Fusion Vector
(§2) H1EK293 (ATCC) cells were transfected with […] LRRK2 WT or LRRK2 (G2019S) and 9 μg transfection carrier DNA. The transfected cells were treated with the compounds (starting at 1 μM, 10-dose with 3-fold dilution) and reference compounds CEP-701 or Staurosporine (starting at 1 μM, 10-dose with 3-fold dilution); compound treatment time: 1 h. LRRK2 WT and LRRK2 (G2019S) target engagement was measured by NanoBRET assay. Curve fits were performed only when % NanoBret signal at the highest concentration of compounds was less than […]. Assay format: 384-well format, 4000 cells/well. The IC50 values are shown in Table C, wherein “A” corresponds to IC50≤50.0 nM, “B” corresponds to 50.0 nM≤IC50<100.0 nM, “C” corresponds to 100.0 nM≤IC50.

[2] = target: LRRK2[G2019S] (Homo sapiens, UniProt Q5S007, G2019S); experiment: Cell-based NanoBRET target engagement assay in HEK293 cells transfected with LRRK2 (G2019S)-NanoLuc fusion vector; design: expressed in transfected cells; host or cells: HEK293 (ATCC); settings: compound treatment 1 h
Method: as §1, §2

LRRK2 WT, sequence (Q5S007 whole entry, the tested form may be a part): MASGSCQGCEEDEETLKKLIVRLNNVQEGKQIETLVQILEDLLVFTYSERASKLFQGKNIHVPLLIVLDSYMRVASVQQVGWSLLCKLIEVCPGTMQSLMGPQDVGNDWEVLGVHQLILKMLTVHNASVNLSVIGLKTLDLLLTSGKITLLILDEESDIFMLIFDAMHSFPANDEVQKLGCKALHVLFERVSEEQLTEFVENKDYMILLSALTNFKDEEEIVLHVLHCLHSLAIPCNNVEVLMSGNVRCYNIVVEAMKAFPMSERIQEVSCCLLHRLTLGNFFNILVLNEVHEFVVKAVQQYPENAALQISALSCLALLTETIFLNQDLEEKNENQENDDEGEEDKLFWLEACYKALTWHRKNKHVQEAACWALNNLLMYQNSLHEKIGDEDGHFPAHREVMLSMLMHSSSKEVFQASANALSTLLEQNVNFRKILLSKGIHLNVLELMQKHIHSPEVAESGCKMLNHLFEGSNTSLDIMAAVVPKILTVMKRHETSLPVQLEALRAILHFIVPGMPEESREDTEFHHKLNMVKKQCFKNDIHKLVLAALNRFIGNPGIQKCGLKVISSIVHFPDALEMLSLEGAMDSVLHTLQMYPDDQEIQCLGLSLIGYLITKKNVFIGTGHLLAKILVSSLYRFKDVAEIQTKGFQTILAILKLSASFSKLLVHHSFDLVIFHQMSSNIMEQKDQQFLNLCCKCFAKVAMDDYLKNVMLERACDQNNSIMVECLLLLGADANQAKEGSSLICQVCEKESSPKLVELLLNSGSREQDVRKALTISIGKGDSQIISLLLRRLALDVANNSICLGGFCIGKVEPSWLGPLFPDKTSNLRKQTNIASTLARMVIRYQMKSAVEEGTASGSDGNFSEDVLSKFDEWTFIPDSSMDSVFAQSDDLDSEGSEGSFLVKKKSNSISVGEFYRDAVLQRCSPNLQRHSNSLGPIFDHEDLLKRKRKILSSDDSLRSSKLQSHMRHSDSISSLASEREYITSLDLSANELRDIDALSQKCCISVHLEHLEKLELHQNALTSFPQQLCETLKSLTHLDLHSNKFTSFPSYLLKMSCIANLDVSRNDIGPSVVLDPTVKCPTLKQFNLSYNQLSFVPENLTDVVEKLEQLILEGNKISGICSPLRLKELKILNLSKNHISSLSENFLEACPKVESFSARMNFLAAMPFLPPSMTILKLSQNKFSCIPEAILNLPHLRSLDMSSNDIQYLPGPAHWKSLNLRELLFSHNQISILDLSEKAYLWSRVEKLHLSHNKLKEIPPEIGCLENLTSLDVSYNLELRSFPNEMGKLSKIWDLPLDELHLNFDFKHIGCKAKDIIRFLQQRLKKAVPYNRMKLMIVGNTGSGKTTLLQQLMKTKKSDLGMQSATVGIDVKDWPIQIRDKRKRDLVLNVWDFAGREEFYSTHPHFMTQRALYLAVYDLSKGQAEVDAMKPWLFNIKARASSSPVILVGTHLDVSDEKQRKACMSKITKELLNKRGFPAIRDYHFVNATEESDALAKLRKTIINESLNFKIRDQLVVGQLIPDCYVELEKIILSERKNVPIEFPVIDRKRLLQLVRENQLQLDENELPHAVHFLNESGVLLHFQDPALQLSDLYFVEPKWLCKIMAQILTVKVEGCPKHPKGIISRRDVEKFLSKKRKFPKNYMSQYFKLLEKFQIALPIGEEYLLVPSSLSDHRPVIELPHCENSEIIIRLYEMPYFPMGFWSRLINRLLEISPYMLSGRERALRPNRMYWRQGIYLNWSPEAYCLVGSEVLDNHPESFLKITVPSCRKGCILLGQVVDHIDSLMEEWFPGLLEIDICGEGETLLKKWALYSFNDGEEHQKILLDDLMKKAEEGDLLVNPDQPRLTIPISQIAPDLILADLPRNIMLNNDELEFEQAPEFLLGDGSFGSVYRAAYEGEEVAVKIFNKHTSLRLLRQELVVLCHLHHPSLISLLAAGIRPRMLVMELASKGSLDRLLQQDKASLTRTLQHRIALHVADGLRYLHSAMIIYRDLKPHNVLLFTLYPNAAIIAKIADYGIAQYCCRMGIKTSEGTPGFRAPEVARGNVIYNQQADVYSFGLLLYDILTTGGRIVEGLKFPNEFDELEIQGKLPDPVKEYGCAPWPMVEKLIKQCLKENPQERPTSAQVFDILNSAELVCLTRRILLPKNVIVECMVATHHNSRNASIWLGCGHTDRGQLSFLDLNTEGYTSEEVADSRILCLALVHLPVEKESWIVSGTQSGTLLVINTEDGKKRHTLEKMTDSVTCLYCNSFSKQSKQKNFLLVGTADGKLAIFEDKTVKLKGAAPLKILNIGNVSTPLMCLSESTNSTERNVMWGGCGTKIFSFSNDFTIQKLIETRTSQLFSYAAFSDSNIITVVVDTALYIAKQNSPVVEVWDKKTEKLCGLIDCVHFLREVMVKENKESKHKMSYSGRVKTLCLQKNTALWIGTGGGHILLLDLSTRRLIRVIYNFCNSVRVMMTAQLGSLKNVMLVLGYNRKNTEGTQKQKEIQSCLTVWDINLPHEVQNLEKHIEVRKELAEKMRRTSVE
LRRK2[G2019S], sequence (Q5S007 whole entry G2019S, the tested form may be a part): as the sequence (Q5S007 whole entry, the tested form may be a part) above, with G2019S counted along it

Row | Structure (SMILES) | IC50 [1] [nM] | IC50 [2] [nM]
1 | Cn1nc(-c2n[nH]c3ccc(OC4(C)CC4)cc23)cc(N2CCCC(C)(O)CC2)c1=O (centres unmarked) [Compound 79, 4-(4-hydroxy-4-methyl-azepan-1-yl)-2-methyl-6-[5-(1-methylcyclopropoxy)-1H-indazol-3-yl]pyridazin-3-one] | ≤ 50 | ≤ 50
2 | Cn1nc(-c2n[nH]c3ccc(OC4(C)CC4)cc23)cc(N2CC(O)C(C)(C)C2)c1=O (centres unmarked) [Compound 62, 4-(4-hydroxy-3,3-dimethyl-pyrrolidin-1-yl)-2-methyl-6-[5-(1-methylcyclopropoxy)-1H-indazol-3-yl]pyridazin-3-one] | ≤ 50 | ≤ 50
3 | Cn1nc(-c2n[nH]c3ccc(OC4(C)CC4)cc23)cc(N2CCOC(CO)CC2)c1=O (centres unmarked) [Compound 92, 4-[7-(hydroxymethyl)-1,4-oxazepan-4-yl]-2-methyl-6-[5-(1-methylcyclopropoxy)-1H-indazol-3-yl]pyridazin-3-one] | ≤ 50 | ≤ 50
4 | CC1CCN(c2cc(-c3n[nH]c4ccc(OC5(C)CC5)cc34)nn(C)c2=O)CC(C)O1 (centres unmarked) [Compound 70, 4-(2,7-dimethyl-1,4-oxazepan-4-yl)-2-methyl-6-[5-(1-methylcyclopropoxy)-1H-indazol-3-yl]pyridazin-3-one] | ≤ 50 | ≤ 50
5 | Cn1nc(-c2n[nH]c3ccc(OC4(C)CC4)cc23)cc(N2CCNC(C(F)(F)F)CC2)c1=O (centres unmarked) [Compound 74, 2-methyl-6-[5-(1-methylcyclopropoxy)-1H-indazol-3-yl]-4-[5-(trifluoromethyl)-1,4-diazepan-1-yl]pyridazin-3-one] | ≤ 50 | ≤ 50
6 | Cn1nc(-c2n[nH]c3ccc(OC4(C)CC4)cc23)cc(N2CC(F)C(C)(C)C2)c1=O (centres unmarked) [Compound 55, 4-(4-fluoro-3,3-dimethyl-pyrrolidin-1-yl)-2-methyl-6-[5-(1-methylcyclopropoxy)-1H-indazol-3-yl]pyridazin-3-one] | ≤ 50 | ≤ 50
7 | Cn1nc(-c2n[nH]c3ccc(OC4(C)CC4)cc23)cc(N2CCCCC(CO)C2)c1=O (centres unmarked) [Compound 75, 4-[3-(hydroxymethyl)azepan-1-yl]-2-methyl-6-[5-(1-methylcyclopropoxy)-1H-indazol-3-yl]pyridazin-3-one] | ≤ 50 | ≤ 50
8 | Cn1nc(-c2n[nH]c3ccc(OC4(C)CC4)cc23)cc(N2CCCOCC2)c1=O [Compound 76, 2-methyl-6-[5-(1-methylcyclopropoxy)-1H-indazol-3-yl]-4-(1,4-oxazepan-4-yl)pyridazin-3-one] | ≤ 50 | ≤ 50
9 | CC1(Oc2ccc3[nH]nc(-c4cc(N5CC(F)C(C)(C)C5)c(=O)n(C5CC5)n4)c3c2)CC1 (centres unmarked) [Compound 61, 2-cyclopropyl-4-(4-fluoro-3,3-dimethyl-pyrrolidin-1-yl)-6-[5-(1-methylcyclopropoxy)-1H-indazol-3-yl]pyridazin-3-one] | ≤ 50 | ≤ 50
10 | Cn1nc(-c2n[nH]c3ccc(OC4(C)CC4)cc23)cc(N2CCCNC(C)(C)C2)c1=O [Compound 67, 4-(3,3-dimethyl-1,4-diazepan-1-yl)-2-methyl-6-[5-(1-methylcyclopropoxy)-1H-indazol-3-yl]pyridazin-3-one] | ≥ 100 | ≥ 100
11 | CC1(Oc2ccc3[nH]nc(-c4cc(N5CC(F)C6(CC6)C5)c(=O)n(C5CC5)n4)c3c2)CC1 (centres unmarked) [Compound 59, 2-cyclopropyl-4-(7-fluoro-5-azaspiro[2.4]heptan-5-yl)-6-[5-(1-methylcyclopropoxy)-1H-indazol-3-yl]pyridazin-3-one] | ≤ 50 | ≤ 50
12 | Cn1nc(-c2n[nH]c3ccc(OC4(C)CC4)cc23)cc(N2CCNCC(C)(O)C2)c1=O (centres unmarked) [Compound 93, 4-(6-hydroxy-6-methyl-1,4-diazepan-1-yl)-2-methyl-6-[5-(1-methylcyclopropoxy)-1H-indazol-3-yl]pyridazin-3-one] | ≥ 100 | ≥ 100
13 | Cn1nc(-c2n[nH]c3ccc(OC4(C)CC4)cc23)cc(N2CCC(C(C)(C)O)C2)c1=O (centres unmarked) [Compound 85, 4-[3-(1-hydroxy-1-methyl-ethyl)pyrrolidin-1-yl]-2-methyl-6-[5-(1-methylcyclopropoxy)-1H-indazol-3-yl]pyridazin-3-one] | ≤ 50 | ≤ 50
14 | Cn1nc(-c2n[nH]c3ccc(OC4(C)CC4)cc23)cc(N2CCCOC(C)(C)C2)c1=O [Compound 73, 4-(2,2-dimethyl-1,4-oxazepan-4-yl)-2-methyl-6-[5-(1-methylcyclopropoxy)-1H-indazol-3-yl]pyridazin-3-one] | 50 to 100 | ≤ 50
15 | CN1CCCN(c2cc(-c3n[nH]c4ccc(OC5(C)CC5)cc34)nn(C)c2=O)CC1 [Compound 63, 2-methyl-6-[5-(1-methylcyclopropoxy)-1H-indazol-3-yl]-4-(4-methyl-1,4-diazepan-1-yl)pyridazin-3-one] | ≤ 50 | ≤ 50
16 | CC(C)N1CCCN(c2cc(-c3n[nH]c4ccc(OC5(C)CC5)cc34)nn(C)c2=O)CC1 [Compound 96, 4-(4-isopropyl-1,4-diazepan-1-yl)-2-methyl-6-[5-(1-methylcyclopropoxy)-1H-indazol-3-yl]pyridazin-3-one] | ≤ 50 | ≤ 50
17 | Cn1nc(-c2n[nH]c3ccc(OC4(C)CC4)cc23)cc(N2CCC(C)(C)NC(C)(C)C2)c1=O [Compound 68, 2-methyl-6-[5-(1-methylcyclopropoxy)-1H-indazol-3-yl]-4-(3,3,5,5-tetramethyl-1,4-diazepan-1-yl)pyridazin-3-one] | ≥ 100 | ≥ 100
18 | Cn1nc(-c2n[nH]c3ccc(OC4(C)CC4)cc23)cc(N2CCCN(CC(C)(C)O)CC2)c1=O [Compound 84, 4-[4-(2-hydroxy-2-methyl-propyl)-1,4-diazepan-1-yl]-2-methyl-6-[5-(1-methylcyclopropoxy)-1H-indazol-3-yl]pyridazin-3-one] | ≤ 50 | ≤ 50
19 | CC1CCN(c2cc(-c3n[nH]c4ccc(OC5(C)CC5)cc34)nn(C)c2=O)CCC1O (centres unmarked) [Compound 78, 4-(4-hydroxy-5-methyl-azepan-1-yl)-2-methyl-6-[5-(1-methylcyclopropoxy)-1H-indazol-3-yl]pyridazin-3-one] | ≤ 50 | ≤ 50
20 | Cn1nc(-c2n[nH]c3ccc(OC4(C)CC4)cc23)cc(N2CCCCC(C)(O)C2)c1=O (centres unmarked) [Compound 81, 4-(3-hydroxy-3-methyl-azepan-1-yl)-2-methyl-6-[5-(1-methylcyclopropoxy)-1H-indazol-3-yl]pyridazin-3-one] | ≤ 50 | ≤ 50
21 | CC1(Oc2ccc3[nH]nc(-c4cc(N5CCOCC6(CC6)C5)c(=O)n(C5CC5)n4)c3c2)CC1 [Compound 53, 2-cyclopropyl-6-[5-(1-methylcyclopropoxy)-1H-indazol-3-yl]-4-(5-oxa-8-azaspiro[2.6]nonan-8-yl)pyridazin-3-one] | ≤ 50 | ≤ 50
22 | Cn1nc(-c2n[nH]c3ccc(OC4(C)CC4)cc23)cc(N2CC(F)C3(CC3)C2)c1=O (centres unmarked) [Compound 57, 4-(7-fluoro-5-azaspiro[2.4]heptan-5-yl)-2-methyl-6-[5-(1-methylcyclopropoxy)-1H-indazol-3-yl]pyridazin-3-one] | ≤ 50 | ≤ 50
23 | Cn1nc(-c2n[nH]c3ccc(OC4(C)CC4)cc23)cc(N2CCOCC(CO)C2)c1=O (centres unmarked) [Compound 88, 4-[6-(hydroxymethyl)-1,4-oxazepan-4-yl]-2-methyl-6-[5-(1-methylcyclopropoxy)-1H-indazol-3-yl]pyridazin-3-one] | ≤ 50 | ≤ 50
24 | CN1CCN(c2cc(-c3n[nH]c4ccc(OC5(C)CC5)cc34)nn(C)c2=O)CCC1C(F)(F)F (centres unmarked) [Compound 65, 2-methyl-6-[5-(1-methylcyclopropoxy)-1H-indazol-3-yl]-4-[4-methyl-5-(trifluoromethyl)-1,4-diazepan-1-yl]pyridazin-3-one] | ≤ 50 | ≤ 50
25 | Cn1nc(-c2n[nH]c3ccc(OC4(C)CC4)cc23)cc(N2CCOCC(C)(O)C2)c1=O (centres unmarked) [Compound 90, 4-(6-hydroxy-6-methyl-1,4-oxazepan-4-yl)-2-methyl-6-[5-(1-methylcyclopropoxy)-1H-indazol-3-yl]pyridazin-3-one] | ≤ 50 | ≤ 50
26 | CC1(Oc2ccc3[nH]nc(-c4cc(N5CC(C)(C)C6COCC65)c(=O)n(C5CC5)n4)c3c2)CC1 (centres unmarked) [Compound 49, 2-cyclopropyl-4-(3,3-dimethyl-3a,4,6,6a-tetrahydro-2H-furo[3,4-b]pyrrol-1-yl)-6-[5-(1-methylcyclopropoxy)-1H-indazol-3-yl]pyridazin-3-one] | ≤ 50 | ≤ 50
27 | Cn1nc(-c2n[nH]c3ccc(OC4(C)CC4)cc23)cc(N2CCC(O)C(F)CC2)c1=O (centres unmarked) [Compound 82, 4-(4-fluoro-5-hydroxy-azepan-1-yl)-2-methyl-6-[5-(1-methylcyclopropoxy)-1H-indazol-3-yl]pyridazin-3-one] | ≤ 50 | ≤ 50
28 | CN1CCN(c2cc(-c3n[nH]c4ccc(OC5(C)CC5)cc34)nn(C)c2=O)CC(F)(F)C1 [Compound 64, 4-(6,6-difluoro-4-methyl-1,4-diazepan-1-yl)-2-methyl-6-[5-(1-methylcyclopropoxy)-1H-indazol-3-yl]pyridazin-3-one] | 50 to 100 | ≤ 50
